The subject of one test is A2780 ovarian cancer. Nature of the test: sulphorhodamine B (SRB) cytotoxicity assay. The test is classed as cell-based, human. To be noted: for IC50: SRB assay, 72 h incubation, mean ± SEM. The method, then: (§1) The cytotoxicity profile of the ruthenium complexes […]-572, and POW-12A was assessed in various cancer cell lines, namely, human cervical cancer HeLa, prostate cancer cell line DU145, breast cancer cell line MDAMB231MB231, ovarian cancer cell line A2780, and cisplatin-resistant ovarian cancer cell line A2780-CP70, using the preferred screen of the National Cancer Institute, the sulphorhodamine (SRB) dye assay, and the trypan blue cell viability assay ([Skehan et al., 1990]; [Houghton et al., 2007]; [Strober, 2001]). To determine their selective toxicity profile, these complexes were also tested in a normal prostate cell line (PTN1A). From the similarity in chemical structures of the compounds, we deduced that a structure-activity relationship study will help elucidate key properties involved in the cytotoxic activity of this class of metal complexes. The sulphorhodamine B (SRB) assay was used to evaluate the cytotoxicity of each cancer line after treating them with the metal complexes in line with the previously established protocol ([Skehan et al., 1990]). A cell density of 3 × 10^4 cells/mL was treated with various concentrations (3, 10, 30, 50, and 100 μM) of each ruthenium complex by 1:200 dilutions of stock solutions (in DMSO) in culture media, using DMSO as a control. Then, 100 μL of the cell-drug suspension was added to the respective wells of a 96-well plate and incubated at 37°C for 72 h in a CO2-containing incubator. Following this, the cells were fixed using 25 ul of Carnoy's solution and left in the fridge (4°C) for 1 h. The plates were then rinsed with running water and tapped on paper to remove dead cells. The cells were then stained with 100 μL of sulphorhodamine B dye and left for 30 min, after which the dye was washed off using 1% acetic acid, and the plate was left to dry in the oven (60°C). The stained cells were then treated with 100 μL of Tris base (10 mM, pH 10) to solubilize the dye stain. Finally, the plates were analyzed using an Omega plate reader. Each assay was conducted in triplicate. % Cell response=Average of treated cells / Average of control cells x 100.
A general note: In SRB staining, fixed cells bind dye roughly in proportion to their protein.

For test [1], the system named is A280-CP70 cisplatin-resistant ovarian cancer. Nature of the test: sulphorhodamine B (SRB) cytotoxicity assay. The test is classed as cell-based, human. The following applies: SRB assay, 72 h incubation; mean ± SEM. The procedure: as §1
The subject of a further test is DU145 prostate cancer. Nature of the test: sulphorhodamine B (SRB) cytotoxicity assay. The test is classed as cell-based, human. To be noted: 72 h incubation, mean ± SEM. The method, then:
as §1

The test system of a further test is MDA-MB-231 (TNBC). Put plainly: sulphorhodamine B (SRB) cytotoxicity assay. The test is classed as cell-based, human. To be noted: 72 h incubation, mean ± SEM. The method, then: as §1
The next test has as its system PNT1A normal prostate. Put plainly: sulphorhodamine B (SRB) cytotoxicity assay. The test is classed as cell-based, human. The following applies: for IC50: SRB assay, 72 h incubation, mean ± SEM. The method, then:
as §1

For the next test, the system named is HS DNA. Nature of the test: DNA binding by fluorescence (emission) titration. Further details: species or system herring. The following applies: for binding constant / binding site size: emission titrations; for n′ (binding site size): titrating concentrated HS DNA into 5 μM solutions of ruthenium complex, direct fitting. The text has this: VNK-754 is a structural analog of [Ru(phen)2dpq]^2+, a complex that intercalates the dpq (dpq = dipyrido[3,2-f:2′,3′-h]quinoxaline) ligand from the minor groove ([Greguric et al., 1997]). The dpq ligand presents a sufficiently large planar surface to allow classical intercalation, and it might be expected that extending the surface with substituents would enhance such binding. However, while this is observed with the addition of aromatic rings, as in the case of [Ru(phen)2dppz]^2+, this may not be true for the addition of a saturated ring that distorts the planarity of the extended ring system (Figure 6). Studies were thus undertaken to establish the binding modes of POW-12A and VNK-572. All complexes bound strongly to DNA, and binding constants and binding site sizes were determined from emission titrations to be 1.91 × 10^6 M^–1 and 0.38 Ru/base for POW-12A, and 1.46 × 10^6 M^–1 and 0.24 Ru/base for VNK-572 (Table 3). […] The smallest binding site size a pure intercalator can have is four bases. The binding site size of POW-12A is smaller than four bases; this is not consistent with binding via pure intercalation.
PBS buffer was prepared with NaCl (137 mM), KCl (2.70 mM), Na2HPO4 (10.1 mM), and KH2PO4 (1.77 mM) in nanopure water. Using HCl, the pH was adjusted to 7.40. PBS buffer was used for all photophysical experiments. For linear dichroism experiments, a PBS buffer without potassium was used. Solutions of open-circle and supercoiled φX174 DNA were obtained from New England Biolabs. Sodium salts of high-molecular-weight herring sperm (HS-DNA) and calf thymus (CT-DNA) from Sigma were dissolved in PBS buffer, and concentrations were determined spectrophotometrically using the extinction coefficient ε260 nm = 6600 M^−1 cm^−1 for nucleobase concentration. The alternating polynucleotide polydeoxyadenylic-thymidylic acid ([poly(dA-dT)]2) and polydeoxyguanylic-cytidylic acid ([poly(dG-dC)]2) from NUNABIO ([Whitfield et al., 2015]) were dissolved in PBS buffer, and their concentrations were determined using the extinction coefficients ε262 nm = 6700 M^−1 cm^−1 and ε254 nm = 8400 M^−1 cm^−1, respectively. Direct fitting to raw data from fluorescence titration experiments (titrating concentrated HS DNA into 5 μM solutions of ruthenium complex) was used to give the binding constant (KB) and binding site size (n′). The following equation is derived from the Scatchard equation: ∝^2∙KB/PD−KB/PD+1/PDDt+KB∙n^′+KB∙n^′ = 0, where Db/Dt=I−I0/I∞−I0 , PD is the phosphate: dye ratio, KB is the binding constant (M^−1), and n′ is the binding site size (bases per compound). The equation is in the form of a quadratic equation, where a = KB[Dt]/PD, b = −(KB/PD+1/PD[Dt ] +KB∙n′), and c = KBn′. The positive solution to this quadratic equation gives values for α, from which theoretical intensities at each PD are calculated. The least squares regression method was used, minimizing the squared residuals of the theoretical and experimental intensities and floating the values of KB, I0, I∞, and n′.

The test system of a further test is CT-DNA. Put plainly: viscometry of DNA with bound complex. The test is classed as binding, calf. To be noted: 25°C. The text has this:
This reduction reflects increased flexibility of the DNA due to electrostatic and steric factors, which is consistent with the LD results for POW-12A but can also occur if the DNA becomes kinked or bent upon binding a small molecule.
An uncalibrated Cannon-Manning extra-low charge semi-micro viscometer (size 75) was used to measure the relative intrinsic viscosity of dilute DNA solutions, according to the manufacturer’s instructions (Cannon Instrument Company) and as described previously ([MoradpourHafshejani et al., 2013]). The viscometer was immersed in a water bath thermostated at 25°C. The DNA concentration and viscometer volume ([…]) were kept constant for a series of added dye concentrations. The flow time for water was ∼177 s, and that for DNA solutions was >245 s. Measurements were carried out in triplicate and provided standard deviations of <±1 s. The flow times are related to the relative intrinsic viscosity according to Eq. 1, where [η] is the intrinsic viscosity in the presence of dye and [η]0 is the intrinsic viscosity of free DNA. t0, td, and tx represent the flow times for buffer only, naked DNA, and dye-bound DNA, respectively. […] If the persistence length is reduced or the DNA is bent (dynamically or statically), the slope will be lowered. tx−tt/td−tt3=η/η03=L/L0=1+αr. (1)

As usually defined, the IC50 is the concentration needed to halve the response being measured. Lower therefore signals higher potency. Take `F[P-](F)(F)(F)(F)F.F[P-](F)(F)(F)(F)F.[Ru+2].c1cnc2c(c1)c1ncc3c(c1c1cccnc12)CCC3.c1cnc2c(c1)ccc1cccnc12.c1cnc2c(c1)ccc1cccnc12` [POW-12A]: the IC50 with A2780 ovarian cancer was 12 ± 1.73 µM; in test [1], 35 ± 3.47 µM; in the test with DU145 prostate cancer, 35 ± 6.93 µM; in the test on MDA-MB-231 (TNBC) it was above 100 µM; in the test with PNT1A normal prostate, above 100 µM. Also, in the test on HS DNA, the binding constant was 1.91 × 10^6 M^–1. This compound displayed a binding site size in the test on HS DNA of 0.38 Ru/base. In addition, the “n′ (binding site size)” value in the test on HS DNA is 2.63 bases per compound. Also, the “effect on DNA viscosity / length” value in the test on CT-DNA was “reduces the viscosity of DNA”.
With `F[P-](F)(F)(F)(F)F.F[P-](F)(F)(F)(F)F.[Ru+2].c1cnc2c(c1)c1ncc3c(c1c1cccnc12)CCCC3.c1cnc2c(c1)ccc1cccnc12.c1cnc2c(c1)ccc1cccnc12` [VNK-572], the IC50 is 10 ± 4.04 µM in the test on A2780 ovarian cancer; 15 ± 2.89 µM in test [1]; 19 ± 2.31 µM in the test with DU145 prostate cancer; above 100 µM in the test on MDA-MB-231 (TNBC); above 100 µM in the test with PNT1A normal prostate. In addition, in the test on A2780 ovarian cancer (more susceptible cancer cell lines (A2780 and DU145)), the “fold difference between the anti-cancer activities of VNK-754 and VNK-572” value is recorded as “seven-fold”. Also, in the test with PNT1A normal prostate (from SRB IC50 values), the “fold difference in sensitivity between normal prostate cells (PNT1A) and prostate cancer cell line DU145” value is on record as “more than five-fold”. In the test on HS DNA, the binding constant was 1.46 × 10^6 M^–1. For the same compound, in the test on HS DNA, the binding site size is on record as 0.24 Ru/base. For the same compound, the “n′ (binding site size)” value with HS DNA was 4.16 bases per compound. In addition, the “effect on DNA viscosity / length” value in the test on CT-DNA is “elongates DNA”.
